Assay results reported in US11518742B2 (priority 2020, dated 2022).
Where two headings read alike, the source gives them in different places.

Assays:
[1] = tested on: Escherichia coli tester strain WP2uvrA; assay: Bacterial Reverse Mutation Test (Ames test), Escherichia coli
[2] = Toxicokinetics, 14-day intranasal study in rats (Study 700041); assay type: in vivo; settings: Sprague Dawley, rat, plasma, inhaled or intranasal; for AUC(0-t): read-out: AUC0-Tlast [SE]; for AUC(0-inf): read-out: AUCINF_obs
Description: (§1) The animals were monitored for mortality, clinical signs, respiratory measurements, body weights, food consumption, and body temperature. Ophthalmoscopic examinations and respiratory function tests were performed on all animals at scheduled timepoints. Clinical pathology assessments (hematology, coagulation, clinical chemistry, and urinalysis) were evaluated at termination. […] Following dosing, the Main animals were euthanized and subjected to a complete necropsy examination on Day 15. […] TK animals were euthanized after the last blood collection and discarded without further examination. At terminal euthanasia, selected tissues/organs were weighed, and microscopic evaluations of a standard set of tissues including the nasal turbinates (4 sections) and brain (7 sections) were performed for all Main and Recovery study animals.
Following dosing, animals in the Main group were euthanized and subjected to a necropsy examination on Day 15.

[3] = target: hERG potassium channel current (IKr) (Homo sapiens, UniProt Q12809); assay: cell-based
From the text: This assay is employed as a screen to assess potential risks for QT interval prolongation.

[4] = tested on: Chinese hamster ovary (CHO)-K1 cells; assay: In vitro micronucleus test (flow cytometry); assay type: cell-based
From the text: The treatment with the vehicle/negative and positive controls was concurrently performed.

[5] = 14-day repeat-dose intranasal toxicity study with 14-day recovery in rats (Study 700041); assay type: in vivo, rat; settings: both sexes, Sprague Dawley, in vivo, inhaled or intranasal; 14-day intranasal, rat
Description: as §1
(§2) Following dosing, animals in the Main group were euthanized and subjected to a necropsy examination on Day 15. […] For toxicokinetics, a series of 8 blood samples (approximately 0.5 mL each) were collected from all rats in the Toxicokinetic group (3 rats/sex/timepoint) on Days 1 and 14 of the treatment period at 2, 5, 10, 15 and 30 minutes, and 1.0, 3.0 and 8 hours after treatment. For control rats (3 rats/sex) in the Toxicokinetic group only 1 sample was collected at the 15 minutes post dosing timepoint on Days 1 and 14.
(§3) Toxicity was based on the following parameters monitored: mortality/morbidity, clinical observations, body weights/gains, food consumption, ophthalmoscopy, clinical pathology (hematology, coagulation, chemistry, and urinalysis), necropsy observations, selected organ weights, and microscopic examination of a complete set of standard tissues including 4 cross levels of the nasal cavity and 7 sections of the brain.

[6] = tested on: Sprague Dawley rats; assay: as above; assay type: in vivo, rat; settings: for Thymus Mean Absolute Weight, percentage compared to the control value: males; for Clinical signs: male and female
Description: as §1, §2, §3

[7] = Summary of clinical observations in applicant-sponsored dog studies; assay type: in vivo; settings: beagle, in vivo, other: intranasal instillation; Dog; HED 50 mg; read-out: NOAEL determined in the 14-day toxicology studies
From the text: (§4) Based on preliminary data from another ongoing study in dogs, it has been observed that the site of blood sampling in dogs may impact the measured plasma exposure. Samples from the jugular vein may result in higher apparent exposure levels than samples from the cephalic vein, which might be due to the local transmucosal route of administration (also reported in the scientific literature (Illum, 2003; Sohlberg, 2013)). Therefore, dose escalation criteria for the Phase 1 Single Ascending Dose study are based on assessment of clinical criteria, safety factors and exposure. A maximum dose of 14 mg has been designated.

[8] = tested on: Dog; assay: as above; assay type: in vivo; settings: Dog 1.0 mg/kg (= 33 mg HED); preliminary data, ongoing study
From the text: as §4

[9] = Toxicokinetics in dog MTD study (Study 62958); assay type: in vivo
Description: During Phase 2, assessments of mortality, clinical signs, body weights and food consumption were performed. […] Following the last dosing, all animals were euthanized and subjected to a necropsy examination on Day 8. The necropsy consisted of an external examination; including reference to all clinically-recorded lesions, as well as a detailed internal examination. Study plan specific tissues/organs were collected and preserved following necropsy but were not further examined microscopically.
There were no sex differences in any of the measured toxicokinetic parameters on either occasion.

[10] = female, 5 mg/kg/day, Day 1, Female
[11] = female, 5 mg/kg/day, Day 14, Female
[12] = female, 20 mg/kg/day, Day 1, Female
[13] = female, 75 mg/kg/day, Day 1, Female
[14] = female, 75 mg/kg/day, Day 14, Female
[15] = male, 5 mg/kg/day, Day 14, Male
[16] = male, 20 mg/kg/day, Day 1, Male
[17] = male, 20 mg/kg/day, Day 14, Male
[18] = male, 75 mg/kg/day, Day 1, Male
[19] = male, 75 mg/kg/day, Day 14, Male

Chain of hERG potassium channel current (IKr) (Q12809 whole entry): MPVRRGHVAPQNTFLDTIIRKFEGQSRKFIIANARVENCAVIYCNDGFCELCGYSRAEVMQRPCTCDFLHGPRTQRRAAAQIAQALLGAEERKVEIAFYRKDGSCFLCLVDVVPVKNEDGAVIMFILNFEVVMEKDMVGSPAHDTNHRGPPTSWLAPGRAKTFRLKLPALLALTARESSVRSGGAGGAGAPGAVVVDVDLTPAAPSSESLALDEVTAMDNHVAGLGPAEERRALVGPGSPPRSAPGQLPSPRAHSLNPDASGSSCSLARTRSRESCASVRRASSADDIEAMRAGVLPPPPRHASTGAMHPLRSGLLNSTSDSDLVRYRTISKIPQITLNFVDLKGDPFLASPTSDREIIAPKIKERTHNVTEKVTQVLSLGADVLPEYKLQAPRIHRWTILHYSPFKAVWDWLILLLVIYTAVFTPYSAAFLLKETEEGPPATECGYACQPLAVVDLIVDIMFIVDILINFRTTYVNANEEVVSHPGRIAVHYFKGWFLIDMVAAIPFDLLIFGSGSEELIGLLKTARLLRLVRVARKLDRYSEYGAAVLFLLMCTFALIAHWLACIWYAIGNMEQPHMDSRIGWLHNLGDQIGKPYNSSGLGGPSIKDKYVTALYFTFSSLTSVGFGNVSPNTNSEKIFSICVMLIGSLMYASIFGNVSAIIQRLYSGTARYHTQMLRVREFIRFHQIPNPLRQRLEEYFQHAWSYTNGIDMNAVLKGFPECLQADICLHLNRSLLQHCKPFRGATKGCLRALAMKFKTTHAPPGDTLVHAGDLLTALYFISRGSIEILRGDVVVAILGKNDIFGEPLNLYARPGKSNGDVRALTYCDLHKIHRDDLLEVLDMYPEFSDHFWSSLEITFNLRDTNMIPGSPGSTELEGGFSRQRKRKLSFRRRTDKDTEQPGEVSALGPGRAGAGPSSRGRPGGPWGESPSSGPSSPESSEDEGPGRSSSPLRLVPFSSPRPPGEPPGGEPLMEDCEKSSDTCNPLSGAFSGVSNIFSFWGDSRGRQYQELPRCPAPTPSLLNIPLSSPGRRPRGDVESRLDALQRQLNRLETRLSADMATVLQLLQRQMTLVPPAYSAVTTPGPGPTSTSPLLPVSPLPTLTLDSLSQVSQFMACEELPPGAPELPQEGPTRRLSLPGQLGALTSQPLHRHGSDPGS

With `COc1ccc2[nH]cc(CCN(C)C)c2c1` [5MeODMT, 5-methoxy-N,N-dimethyltryptamine] as the compound, how does the Cytotoxicity ([1]; E. coli strain, absence or presence of S9 mix) read?
Its Cytotoxicity is “No cytotoxicity”.

And the “Mutagenic potential (conclusion)” value ([1]; absence or presence of S9)?
Its value is “no mutagenic potential”.

What about the Tmax ([2]; both sexes, 75 mg/kg, rats, 14-day intranasal study, 5, 20, 75 mg/kg) of the same compound?
The Tmax was 2 to 5 min.

What about the half-life ([2]; both sexes, 75 mg/kg, rats, 14-day intranasal study, 5, 20, 75 mg/kg, read-out: apparent t1/2) of the same compound?
Its half-life is 6.8 to 9.4 min.

And the Cmax [2, 10]?
Its Cmax is 186 ng/mL.

And the Tmax [2, 10]?
Its Tmax is 9.96 min.

What about the AUC(0-t) [2, 10] of the same compound?
The AUC(0-t) was 53.2 ng·h/mL.

And the AUC(0-inf) [2, 10]?
The AUC(0-inf) was 53.7 ng·h/mL.

And the Cmax [2, 11]?
The Cmax was 645 ng/mL.

What about the AUC(0-t) [2, 11] of the same compound?
The AUC(0-t) was 63.8 ng·h/mL.

And the AUC(0-inf) [2, 11]?
Its AUC(0-inf) is 64 ng·h/mL.

What about the half-life ([2]; female, 5 mg/kg/day, Day 14, Female, read-out: t1/2 (converted)) of the same compound?
The half-life was 6.78 min.

And the Cmax [2, 12]?
Its Cmax is 679 ng/mL.

And the AUC(0-t) [2, 12]?
Its AUC(0-t) is 198 ng·h/mL.

And the AUC(0-inf) [2, 12]?
Its AUC(0-inf) is 198 ng·h/mL.

And the Cmax ([2]; female, 20 mg/kg/day, Day 14, Female)?
The Cmax was 795 ng/mL.

And the Cmax [2, 13]?
The Cmax was 1310 ng/mL.

What about the AUC(0-t) [2, 13] of the same compound?
The AUC(0-t) was 228 ng·h/mL.

And the AUC(0-inf) [2, 13]?
The AUC(0-inf) was 228 ng·h/mL.

What about the half-life ([2]; female, 75 mg/kg/day, Day 1, Female, read-out: t1/2 (converted)) of the same compound?
The half-life was 9.36 min.

What about the Cmax [2, 14] of the same compound?
Its Cmax is 870 ng/mL.

What about the AUC(0-t) [2, 14] of the same compound?
The AUC(0-t) was 155 ng·h/mL.

And the half-life ([2]; female, 75 mg/kg/day, Day 14, Female, read-out: t1/2 (converted))?
Its half-life is 7.8 min.

And the Cmax ([2]; male, 5 mg/kg/day, Day 1, Male)?
The Cmax was 191 ng/mL.

And the AUC(0-t) ([2]; male, 5 mg/kg/day, Day 1, Male)?
Its AUC(0-t) is 39.9 ng·h/mL.

What about the AUC(0-inf) ([2]; male, 5 mg/kg/day, Day 1, Male) of the same compound?
The AUC(0-inf) was 40.1 ng·h/mL.

What about the Cmax [2, 15] of the same compound?
Its Cmax is 627 ng/mL.

What about the AUC(0-t) [2, 15] of the same compound?
Its AUC(0-t) is 114 ng·h/mL.

And the AUC(0-inf) [2, 15]?
The AUC(0-inf) was 115 ng·h/mL.

And the Cmax [2, 16]?
The Cmax was 4190 ng/mL.

What about the AUC(0-t) [2, 16] of the same compound?
The AUC(0-t) was 420 ng·h/mL.

What about the AUC(0-inf) [2, 16] of the same compound?
The AUC(0-inf) was 421 ng·h/mL.

What about the half-life ([2]; male, 20 mg/kg/day, Day 1, Male, read-out: t1/2 (converted)) of the same compound?
Its half-life is 7.5 min.

What about the Cmax [2, 17] of the same compound?
Its Cmax is 1200 ng/mL.

What about the AUC(0-t) [2, 17] of the same compound?
The AUC(0-t) was 133 ng·h/mL.

And the AUC(0-inf) [2, 17]?
Its AUC(0-inf) is 133 ng·h/mL.

What about the half-life ([2]; male, 20 mg/kg/day, Day 14, Male, read-out: t1/2 (converted)) of the same compound?
The half-life was 8.58 min.

And the Cmax [2, 18]?
The Cmax was 7010 ng/mL.

And the AUC(0-t) [2, 18]?
Its AUC(0-t) is 1030 ng·h/mL.

What about the AUC(0-inf) [2, 18] of the same compound?
The AUC(0-inf) was 1040 ng·h/mL.

What about the Cmax [2, 19] of the same compound?
The Cmax was 3290 ng/mL.

And the AUC(0-t) [2, 19]?
The AUC(0-t) was 391 ng·h/mL.

And the AUC(0-inf) [2, 19]?
The AUC(0-inf) was 392 ng·h/mL.

What about the half-life ([2]; male, 75 mg/kg/day, Day 14, Male, read-out: t1/2 (converted)) of the same compound?
Its half-life is 6.96 min.

And the IC50 [3]?
The IC50 was 8.69 µM.

And the inhibition at 1 µM ([3]; human)?
Its inhibition at 1 µM is 5.03 ± 1.95%.

And the inhibition at 3 µM ([3]; human)?
Its inhibition at 3 µM is 23.8 ± 6.1%.

And the inhibition at 10 µM ([3]; human)?
Its inhibition at 10 µM is 52.7 ± 2.61%.

What about the inhibition at 35 µM ([3]; human) of the same compound?
Its inhibition at 35 µM is 82.2 ± 1.91%.

And the “Chromosome-damaging potential (conclusion)” value [4]?
The value was “no chromosome-damaging potential”.

And the “Micronuclei or hypodiploid cells” value ([4]; all treatment regimens, absence or presence of S9)?
Its value is “did not induce any increases in micronuclei or hypodiploid cells”.

What about the Cytotoxicity or precipitation ([4]; up to the maximal dose level of 300 μg/mL) of the same compound?
The Cytotoxicity or precipitation was “No cytotoxicity or precipitation”.

For `COc1ccc2[nH]cc(CCN(C)C)c2c1` [BPL-5MEO, 5-methoxy-N,N-dimethyltryptamine], which NOAEL at 14 days [5] is on record?
The NOAEL at 14 days was 5 mg/kg.

And the “Effect on reproductive tissues” value ([6]; 14-day pivotal GLP intranasal toxicity study, rats)?
The value was “no evidence of an adverse effect on reproductive tissues”.

And the Respiratory rates ([6]; 20 minutes post dose)?
Its Respiratory rates is “Decreases in respiratory rates”.

What about the “Thymus Mean Absolute Weight, percentage compared to the control value” (“Thymus Mean Absolute Weight, percentage” below) ([6]; Group 2 (5 mg/kg/day)) of the same compound?
Its value is −4%.

And the Clinical signs ([6]; Group 2 (Low Dose) 5 mg/kg/day)?
Its Clinical signs is “incoordination, shaking, salivation, decreased activity, lying on cage floor and sensitive to touch”.

What about the “Thymus Mean Absolute Weight, percentage” value ([6]; Group 3 (20 mg/kg/day)) of the same compound?
Its value is 18%.

And the Clinical signs ([6]; Group 3 (Mid Dose) 20 mg/kg/day)?
The Clinical signs was “incoordination, shaking (or tremor), increased or shallow respiration, mydriasis, salivation, decreased activity, partially closed eyes, lying on cage floor and sensitive to touch”.

What about the “Thymus Mean Absolute Weight, percentage” value ([6]; Group 4 (75 mg/kg/day)) of the same compound?
The value was −31%.

What about the Clinical signs ([6]; Group 4 (High Dose) 75 mg/kg/day) of the same compound?
Its Clinical signs is “incoordination, shaking (or tremor), increased or shallow respiration, mydriasis, salivation, decreased activity, partially closed eyes, lying on cage floor and sensitive to touch”.

What about the “Microscopic findings, epithelium of nasal cavities 1-4” value ([6]; Main animals, proportional to dose, greater in males) of the same compound?
Its value is “minimal to mild changes”.

What about the “Reversibility of nasal microscopic findings” value ([6]; after 14-day recovery period) of the same compound?
The value was “incomplete but progressive ongoing reversal of epithelial degeneration”.

And the Body temperature ([6]; both sexes)?
The Body temperature was “Slight dose dependent body temperature increases”.

And the Body weight gain ([6]; both sexes, Days 1 to 14)?
The Body weight gain was “Slight dose-dependent body weight gain suppression”.

What about the Ocular effect ([6]; dose levels 75 mg/kg/day for 14 days) of the same compound?
The Ocular effect was “no adverse ocular effect”.

And the “Activated partial thromboplastin time (APTT)” value ([6]; mid (20 mg/kg/day) and high (75 mg/kg/day) dose groups, both sexes)?
The value was “APTT were increased”.

What about the Hematology ([6]; mid and high dose groups, both sexes) of the same compound?
The Hematology was “Platelet, neutrophil, monocyte and basophil counts were slightly increased”.

And the Overall tolerability ([6]; ≤75 mg/kg/day for 14 consecutive days)?
Its Overall tolerability is “tolerated with no BPL-5MEO-related effects on mortality, ophthalmology, clinical chemistry, macroscopic findings and urinalysis”.

And the NOAEL at 14 days [7]?
The NOAEL at 14 days was 1.5 mg/kg.

And the Clinical observations [8]?
The Clinical observations was “Slighttremor”.

And the “Accumulation over the 7-day treatment period” value ([9]; daily intranasal instillation)?
Its value is “did not accumulate”.

What about the Tmax ([9]; dog, plasma, inhaled or intranasal, dogs, Days 1 and 7, both sexes) of the same compound?
The Tmax was 2 to 15 min.
